pEC50: −log10 of the molar value. Active and inactive are the calls of the source. The calls are words filed in the database; no cut-off is given here.
How the values were obtained:
[1] = test system: SARS-CoV-2; assay: (§1) Antiviral activity against SARS-CoV-2 infected in hACE2 expressing female B6.Cg-Tg(K18-ACE2)2Prlmn/J mouse model assessed as survival rate at 100 mg/kg, po preadministered twice daily for 4 days at 8 hrs interval with four hours before and after viral challenge and measured 14 days post viral challenge relative to control; type: functional; details: Severe acute respiratory syndrome coronavirus 2, 336 h, time 14 day
[2] = test system: SARS-CoV-2; assay: as §1, with “reduction in body weight loss” for “survival rate”, “50” for “100”, “challenge” for “challenge relative to control”; type: functional, organism-based; details: Severe acute respiratory syndrome coronavirus 2, time 14.0 day
[3] = test system: SARS-CoV-2; assay: Antiviral activity against SARS-CoV-2 infected in African green monkey Vero cells assessed as reduction in viral N protein level at 1 to 10 uM measured after 1 day by Western blot analysis relative to control; type: functional, Severe acute respiratory syndrome coronavirus 2; set-up: scale not given: the % may be the effect or the level left; details: dose 1-10 µM
[4] = AUCinfinity in male ICR mouse at 5 mg/kg, iv measured after 24 hrs by LC-MS/MS analysis; type: ADME, organism-based; details: in vivo
[5] = test system: SARS-CoV-2; assay: as §1, with “reduction in body weight loss” for “survival rate”, “9” for “14”, “challenge” for “challenge relative to control”; type: functional, organism-based; details: Severe acute respiratory syndrome coronavirus 2, time 9.0 day
[6] = test system: SARS-CoV-2; assay: (§2) Antiviral activity against SARS-CoV-2 Omicron (hCoV-19/Korea/KDCA447321/2021) infected in human Calu-3 cells assessed as reduction in number of spike-protein expressing cells pre-infected for 30 mins followed by compound addition and measured 48 hrs post-infection by DAPI staining based immunofluorescence analysis relative to control; type: functional, organism-based; details: Severe acute respiratory syndrome coronavirus 2, Omicron (hCoV-19/Korea/KDCA447321/2021)
[7] = test system: Zaire ebolavirus; assay: Antiviral activity against Zaire Ebola virus infected in HEK293T cells transfected with viral replication protein and Renilla luciferase pre-infected for 4 hrs followed by compound addition and measured after 48 hrs by Dual-luciferase reporter assay; type: functional, organism-based; details: HEK-293T
[8] = Cytotoxicity against human Huh-7 cells assessed as reduction in cell viability by MTT-based cell viability assay; type: toxicity
[9] = test system: SARS-CoV-2; assay: (§3) Antiviral activity against SARS-CoV-2 infected in african green monkey Vero cells assessed as reduction in number of spike-protein expressing cells pre-infected for 30 mins followed by compound addition and measured 48 hrs post-infection by DAPI staining based immunofluorescence analysis; type: functional, organism-based; details: Severe acute respiratory syndrome coronavirus 2, Vero
[10] = AUClast in male ICR mouse at 5 mg/kg, iv measured after 24 hrs by LC-MS/MS analysis; type: ADME, organism-based; details: in vivo
[11] = test system: rhinovirus B14; assay: Antiviral activity against Human rhinovirus B14 infected in human H1-HeLa cells incubated for 72 hrs; type: functional, organism-based; details: Rhinovirus B
[12] = Cytotoxicity against African green monkey Vero cells assessed as reduction in cell viability incubated for 48 hrs by MTT assay; type: toxicity, cell-based; details: chlorocebus sabaeus
[13] = test system: SARS-CoV-2; assay: as §2, with “Wuhan-like (hCoV-19/Korea/KCDC06/2020)” for “Omicron (hCoV-19/Korea/KDCA447321/2021)”; type: functional, organism-based; details: Severe acute respiratory syndrome coronavirus 2, Wuhan-like (hCoV-19/Korea/KCDC06/2020)
[14] = MRTlast in male ICR mouse at 10 mg/kg, po measured after 24 hrs by LC-MS/MS analysis; type: ADME, organism-based; details: in vivo
[15] = test system: Influenza B virus; assay: Antiviral activity against Influenza B virus B/Lee/40 infected in MDCK cells assessed as reduction in virus-induced cytopathic effect incubated for 3 days in presence of TPCK-treated trypsin by MTT assay; type: functional, organism-based; details: B/Lee/40, MDCK, 72 h
[16] = test system: Influenza A virus (H1N1); assay: Antiviral activity against Influenza A virus A/Puerto Rico/8/34 (H1N1) infected in MDCK cells assessed as reduction in virus-induced cytopathic effect incubated for 3 days in presence of TPCK-treated trypsin by MTT assay; type: functional, organism-based; details: 72 h
[17] = Clearance in male ICR mouse at 5 mg/kg, iv measured after 24 hrs by LC-MS/MS analysis; type: ADME, organism-based; details: in vivo
[18] = Cytotoxicity against human Calu-3 cells assessed as reduction in cell viability incubated for 48 hrs by MTT assay; type: toxicity, cell-based
[19] = AUClast in male ICR mouse at 10 mg/kg, po measured after 24 hrs by LC-MS/MS analysis; type: ADME, organism-based; details: in vivo
[20] = test system: SARS-CoV-2; assay: as §3, with “expressing cells at 30 uM pre-infected for” for “expressing cells pre-infected for”, “immunofluorescence analysis relative to control” for “immunofluorescence analysis”; type: functional, Severe acute respiratory syndrome coronavirus 2; set-up: scale not given: the % may be the effect or the level left; details: time 47.5 hrs
[21] = test system: SARS-CoV-2; assay: as §2, with “Gamma (hCoV-19/Korea95637/KDCA/2021)” for “Omicron (hCoV-19/Korea/KDCA447321/2021)”; type: functional, organism-based; details: Severe acute respiratory syndrome coronavirus 2, Gamma (hCoV-19/Korea95637/KDCA/2021)
[22] = Cytotoxicity against HEK293T cells assessed as reduction in cell viability measured after 48 hrs by MTT assay; type: toxicity, cell-based, HEK-293T; details: human
[23] = test system: Middle East respiratory syndrome-related coronavirus; assay: Antiviral activity against MERS-CoV KOR/KNIH/002_05_2015 infected in human Huh-7 cells assessed as inhibition of virus-induced cytopathic effect measured 2 to 7 days post infection by MTT-based cell viability assay; type: functional, organism-based; details: KOR/KNIH/002_05_2015, Huh-7
[24] = Terminal half-life in male ICR mouse at 5 mg/kg, iv measured after 24 hrs by LC-MS/MS analysis; type: ADME, organism-based; details: in vivo, read-out: beta t1/2 (converted)
[25] = test system: SARS-CoV-2; assay: as §1, with “reduction in body weight loss” for “survival rate”, “challenge” for “challenge relative to control”; type: functional, organism-based; details: Severe acute respiratory syndrome coronavirus 2, time 14.0 day
[26] = test system: SARS-CoV-2; assay: Antiviral activity against SARS-CoV-2 infected in African green monkey Vero cells assessed as reduction in viral N protein level measured after 1 day by Western blot analysis; type: functional, organism-based; details: Severe acute respiratory syndrome coronavirus 2, dose 0.1-10 µM
[27] = Oral bioavailability in male ICR mouse at 10 mg/kg measured after 24 hrs by LC-MS/MS analysis; type: ADME, organism-based; details: in vivo
[28] = test system: SARS-CoV-2; assay: Antiviral activity against SARS-CoV-2 infected in African green monkey Vero cells assessed as reduction in viral RNA copy number at 0.1 to 10 uM measured after 1 day by qRT-PCR analysis; type: functional, organism-based; details: Severe acute respiratory syndrome coronavirus 2, dose 0.1-10 µM
[29] = test system: SARS-CoV-2; assay: Antiviral activity against SARS-CoV-2 infected in african green monkey Vero cells assessed as nuclear occupancy at 30 uM pre-infected for 30 mins followed by compound addition and measured 48 hrs post-infection by DAPI staining based immunofluorescence analysis relative to control; type: functional, Severe acute respiratory syndrome coronavirus 2; details: time 47.5 hrs
[30] = MRTinfinity in male ICR mouse at 10 mg/kg, po measured after 24 hrs by LC-MS/MS analysis; type: ADME, organism-based; details: in vivo
[31] = Cytotoxicity against golden hamster BHK-21 cells assessed as reduction in cell viability by MTT assay; type: toxicity, cell-based, Mesocricetus auratus
[32] = MRTinfinity in male ICR mouse at 5 mg/kg, iv measured after 24 hrs by LC-MS/MS analysis; type: ADME, organism-based; details: in vivo
[33] = Tmax in male ICR mouse at 10 mg/kg, po measured after 24 hrs by LC-MS/MS analysis; type: ADME, organism-based; details: in vivo
[34] = Cytotoxicity against human H1-HeLa cells assessed as reduction in cell viability incubated for 72 hrs; type: toxicity, cell-based
[35] = test system: dengue virus type 2; assay: Antiviral activity against Dengue virus 2 infected in BHK-21 cells transfected with Renilla luciferase tagged viral subgenomic replicon incubated for 48 hrs by luciferase based assay; type: functional, organism-based; details: BHK-21, 48 h
[36] = AUCinfinity in male ICR mouse at 10 mg/kg, po measured after 24 hrs by LC-MS/MS analysis; type: ADME, organism-based; details: in vivo
[37] = test system: Influenza A virus; assay: Antiviral activity against Influenza A virus A/Hong Kong/8/68 (H3N2) infected in MDCK cells assessed as reduction in virus-induced cytopathic effect incubated for 3 days in presence of TPCK-treated trypsin by MTT assay; type: functional, organism-based; details: 72 h
[38] = Terminal half-life in male ICR mouse at 10 mg/kg, po measured after 24 hrs by LC-MS/MS analysis; type: ADME, organism-based; details: in vivo, read-out: beta t1/2 (converted)
[39] = Cmax in male ICR mouse at 10 mg/kg, po measured after 24 hrs by LC-MS/MS analysis; type: ADME, organism-based; details: in vivo
[40] = test system: SARS-CoV-2; assay: as §2, with “Delta (hCoV-19/Korea/KDCA119861/2021)” for “Omicron (hCoV-19/Korea/KDCA447321/2021)”; type: functional, organism-based; details: Severe acute respiratory syndrome coronavirus 2, Delta (hCoV-19/Korea/KDCA119861/2021)
[41] = MRTlast in male ICR mouse at 5 mg/kg, iv measured after 24 hrs by LC-MS/MS analysis; type: ADME, organism-based; details: in vivo
[42] = Cytotoxicity against MDCK cells assessed as reduction in cell viability incubated for 3 days by MTT assay; type: toxicity, cell-based, Canis lupus familiaris; details: dog, time 3 day
[43] = test system: Human coronavirus NL63; assay: Antiviral activity against HCoV-NL63 infected in LLC-MK2 cells assessed as inhibition of virus-induced cytopathic effect measured 2 to 7 days post infection by MTT-based cell viability assay; type: functional, organism-based
[44] = Cytotoxicity against rhesus monkey LLC-MK2 cells assessed as reduction in cell viability by MTT-based cell viability assay; type: toxicity, Macaca mulatta
[45] = Selectivity index, ratio of CC50 for cytotoxicity against MDCK cells to EC50 for antiviral activity against Influenza A virus A/Puerto Rico/8/34 (H1N1) infected in MDCK cells assessed as reduction in virus-induced cytopathic effect; type: toxicity, cell-based; details: dog, read-out: Ratio CC50/EC50
[46] = Selectivity index, ratio of CC50 for cytotoxicity against MDCK cells to EC50 for antiviral activity against Influenza A virus A/Hong Kong/8/68 (H3N2) infected in MDCK cells assessed as reduction in virus-induced cytopathic effect; type: toxicity, cell-based; details: dog, read-out: Ratio CC50/EC50
[47] = Selectivity index, ratio of CC50 for cytotoxicity against golden hamster BHK-21 cells to EC50 for antiviral activity against Dengue virus 2 infected in BHK-21 cells transfected with Renilla luciferase tagged viral subgenomic replicon; type: toxicity, cell-based; details: read-out: Ratio CC50/EC50
[48] = Selectivity index, ratio of CC50 for cytotoxicity against MDCK cells to EC50 for antiviral activity against Influenza B virus B/Lee/40 infected in MDCK cells assessed as reduction in virus-induced cytopathic effect; type: toxicity, cell-based; details: dog, read-out: Ratio CC50/EC50

With O=c1ccn([C@@H]2S[C@H](CO)[C@@H](O)[C@H]2O)c(=O)[nH]1 the survival at 100 mg/kg [1] was 40%, the Activity [2] was “inactive” and the Activity [3] was 100%. The AUC(0-inf) [4] was 20500 ng·h/mL, the Activity [5] was “Active” and the pEC50 [6] was 5.58. The pEC50 [7] was 4.48, the CC50 [8] was greater than 100 µM and the pEC50 [9] was 5.77. It also gave an AUC(0-t) at 24 h [10] of 17500 ng·h/mL, a pEC50 [11] of 4.63 and a CC50 at 48 h [12] greater than 100 µM. It also gave a pEC50 [13] of 5.39, an MRT last at 24 h [14] of 6.84 h and a pEC50 [15] of 4.69. The pEC50 [16] was 4.87, the clearance [17] was 4.17 mL/min/kg and the CC50 at 48 h [18] was greater than 100 µM. The AUC(0-t) at 24 h [19] was 38000 ng·h/mL, the Activity [20] was greater than 80% and the pEC50 [21] was 5.46. The CC50 at 48 h [22] was 81.1 µM, the pEC50 [23] was 5.39 and the half-life [24] was 8.87 h. The Activity [25] was “Active”, the Activity [26] was “Dose-dependent-effect” and the bioavailability [27] was 109%. The Activity [28] was “Active”, the Activity [29] was greater than 80% and the MRT inf [30] was 10.5 h. The CC50 [31] was 93.7 µM, the MRT inf [32] was 11.4 h and the Tmax [33] was 1 h. It also gave a CC50 at 72 h [34] greater than 100 µM, a pEC50 [35] of 4.38 and an AUC(0-inf) [36] of 43600 ng·h/mL. The pEC50 [37] was 4.82, the half-life [38] was 8.2 h and the Cmax [39] was 4980 ng/mL. For the same compound, the pEC50 [40] was 5.12, the MRT last at 24 h [41] was 7.16 h and the CC50 at 72 h [42] was greater than 100 µM. The pEC50 [43] was 5.34 and the CC50 [44] was greater than 100 µM.

Work on NC(=O)c1ncn([C@@H]2O[C@H](CO)[C@@H](O)[C@H]2O)n1 [RIBAVIRIN] yielded a selectivity ratio [45] greater than 5.77, a selectivity ratio [46] greater than 5.82 and a selectivity ratio [47] greater than 28.8. The selectivity ratio [48] was greater than 6.39, the pEC50 [15] was 4.80 and the pEC50 [16] was 4.76. It also gave a CC50 [31] greater than 100 µM, a pEC50 [35] of 5.46 and a pEC50 [37] of 4.76. It also gave a CC50 at 72 h [42] greater than 100 µM.

Reference: ChEMBL document CHEMBL6182943, “Identification of 4'-Thiouridine as an Orally Available Antiviral Agent Targeting Both RdRp and NiRAN Functions of SARS-CoV-2 Nsp12” (J Med Chem, 2025)
